# Data from patent publication US4670038A, “Cyclotriphosphazatriene-derivatives as soil urease activity inhibitors” (Tennessee Valley Authority, priority 1986, dated 1987).
# Test system: soil urease
# Test: Soil urease inhibition in Crowley silt loam soil, extended time evaluation system (urea added at selected intervals)
# Assay type: biochemical
# Details: 7 micromoles compound per 120 g Crowley silt loam, 30° C.; urea added after 0 days, reincubated 16 hours
row,SMILES,"Soil Urease Inhibition, 0 Days"
1,"NP1(Oc2ccccc2)=NP(N)(Oc2ccccc2)=NP(N)(Oc2ccccc2)=N1 (centres unmarked) [P3 N3 (NH2)3 (OC6 H5)3, 2,4,6-triphenoxy-2,4,6-triaminocyclotriphosphazatriene]",22%
2,"NP1(N)=NP(N)(Oc2ccccc2)=NP(N)(Oc2ccccc2)=N1 (centres unmarked) [P3 N3 (NH2)4 (OC6 H5)2, 2,4-diphenoxy-2,4,6,6-tetraaminocyclotriphosphazatriene]",75%
3,"NP1(N)=NP(N)(N)=NP(N)(Oc2ccccc2)=N1 (centres unmarked) [P3 N3 (NH2)5 (OC6 H5), 2-phenoxy-2,4,4,6,6-pentaaminocyclotriphosphazatriene]",95%

# Same assay, conditions: 7 micromoles compound per 120 g Crowley silt loam, 30° C.; urea added after 3 days, reincubated 16 hours
row,SMILES,"Soil Urease Inhibition, 3 Days"
1,"NP1(Oc2ccccc2)=NP(N)(Oc2ccccc2)=NP(N)(Oc2ccccc2)=N1 (centres unmarked) [P3 N3 (NH2)3 (OC6 H5)3, 2,4,6-triphenoxy-2,4,6-triaminocyclotriphosphazatriene]",79%
2,"NP1(N)=NP(N)(Oc2ccccc2)=NP(N)(Oc2ccccc2)=N1 (centres unmarked) [P3 N3 (NH2)4 (OC6 H5)2, 2,4-diphenoxy-2,4,6,6-tetraaminocyclotriphosphazatriene]",94%
3,"NP1(N)=NP(N)(N)=NP(N)(Oc2ccccc2)=N1 (centres unmarked) [P3 N3 (NH2)5 (OC6 H5), 2-phenoxy-2,4,4,6,6-pentaaminocyclotriphosphazatriene]",75%

# Same assay, conditions: 7 micromoles compound per 120 g Crowley silt loam, 30° C.; urea added after 7 days, reincubated 16 hours
row,SMILES,"Soil Urease Inhibition, 7 Days"
1,"NP1(Oc2ccccc2)=NP(N)(Oc2ccccc2)=NP(N)(Oc2ccccc2)=N1 (centres unmarked) [P3 N3 (NH2)3 (OC6 H5)3, 2,4,6-triphenoxy-2,4,6-triaminocyclotriphosphazatriene]",74%
2,"NP1(N)=NP(N)(Oc2ccccc2)=NP(N)(Oc2ccccc2)=N1 (centres unmarked) [P3 N3 (NH2)4 (OC6 H5)2, 2,4-diphenoxy-2,4,6,6-tetraaminocyclotriphosphazatriene]",71%
3,"NP1(N)=NP(N)(N)=NP(N)(Oc2ccccc2)=N1 (centres unmarked) [P3 N3 (NH2)5 (OC6 H5), 2-phenoxy-2,4,4,6,6-pentaaminocyclotriphosphazatriene]",49%

# Same assay, conditions: 7 micromoles compound per 120 g Crowley silt loam, 30° C.; urea added after 14 days, reincubated 16 hours
row,SMILES,"Soil Urease Inhibition, 14 Days"
1,"NP1(Oc2ccccc2)=NP(N)(Oc2ccccc2)=NP(N)(Oc2ccccc2)=N1 (centres unmarked) [P3 N3 (NH2)3 (OC6 H5)3, 2,4,6-triphenoxy-2,4,6-triaminocyclotriphosphazatriene]",84%
2,"NP1(N)=NP(N)(Oc2ccccc2)=NP(N)(Oc2ccccc2)=N1 (centres unmarked) [P3 N3 (NH2)4 (OC6 H5)2, 2,4-diphenoxy-2,4,6,6-tetraaminocyclotriphosphazatriene]",69%
3,"NP1(N)=NP(N)(N)=NP(N)(Oc2ccccc2)=N1 (centres unmarked) [P3 N3 (NH2)5 (OC6 H5), 2-phenoxy-2,4,4,6,6-pentaaminocyclotriphosphazatriene]",42%

# Same assay, conditions: 7 micromoles compound per 120 g Crowley silt loam, 30° C.; urea added after 21 days, reincubated 16 hours
row,SMILES,"Soil Urease Inhibition, 21 Days"
1,"NP1(Oc2ccccc2)=NP(N)(Oc2ccccc2)=NP(N)(Oc2ccccc2)=N1 (centres unmarked) [P3 N3 (NH2)3 (OC6 H5)3, 2,4,6-triphenoxy-2,4,6-triaminocyclotriphosphazatriene]",82%
2,"NP1(N)=NP(N)(Oc2ccccc2)=NP(N)(Oc2ccccc2)=N1 (centres unmarked) [P3 N3 (NH2)4 (OC6 H5)2, 2,4-diphenoxy-2,4,6,6-tetraaminocyclotriphosphazatriene]",65%
3,"NP1(N)=NP(N)(N)=NP(N)(Oc2ccccc2)=N1 (centres unmarked) [P3 N3 (NH2)5 (OC6 H5), 2-phenoxy-2,4,4,6,6-pentaaminocyclotriphosphazatriene]",44%

# Same assay, conditions: Crowley silt loam, 30° C.; period from 7 to 21 days
row,SMILES,Urease inhibition sustained during the period from 7 to 21 days (FIG. 2)
1,"NP1(Oc2ccccc2)=NP(N)(Oc2ccccc2)=NP(N)(Oc2ccccc2)=N1 (centres unmarked) [P3 N3 (NH2)3 (OC6 H5)3, 2,4,6-triphenoxy-2,4,6-triaminocyclotriphosphazatriene]",greater than 80%

# Test system: soil urease
# Test: Urea hydrolysis in bands of urea plus inhibitor in Hastings silt loam soil (banded system)
# Assay type: biochemical
# Details: Hastings silt loam, banded system, 3-day and 6-day tests
row,SMILES,"Soil urease inhibition in words, banded soil tests"
1,"NP1(N)=NP(N)(Oc2ccccc2)=NP(N)(Oc2ccccc2)=N1 (centres unmarked) [P3 N3 (NH2)4 (OC6 H5)2, 2,4-diphenoxy-2,4,6,6-tetraaminocyclotriphosphazatriene]",inhibit soil urease during the 3-day and 6-day tests
2,"NP1(N)=NP(N)(N)=NP(N)(Oc2ccccc2)=N1 (centres unmarked) [P3 N3 (NH2)5 (OC6 H5), 2-phenoxy-2,4,4,6,6-pentaaminocyclotriphosphazatriene]",inhibit soil urease during the 3-day and 6-day tests

# Same assay, conditions: Table VI; 41 mg inhibitor/band, 410 mg urea/band; three replications; Hastings silt loam, 25° C.; 3 days
row,SMILES,"Unhydrolyzed Urea, % Banded 3-Day"
1,"NP1(Oc2ccccc2)=NP(N)(Oc2ccccc2)=NP(N)(Oc2ccccc2)=N1 (centres unmarked) [P3 N3 (NH2)3 (OC6 H5)3, 2,4,6-triphenoxy-2,4,6-triaminocyclotriphosphazatriene]",21%
2,"NP1(N)=NP(N)(Oc2ccccc2)=NP(N)(Oc2ccccc2)=N1 (centres unmarked) [P3 N3 (NH2)4 (OC6 H5)2, 2,4-diphenoxy-2,4,6,6-tetraaminocyclotriphosphazatriene]",60%
3,"NP1(N)=NP(N)(N)=NP(N)(Oc2ccccc2)=N1 (centres unmarked) [P3 N3 (NH2)5 (OC6 H5), 2-phenoxy-2,4,4,6,6-pentaaminocyclotriphosphazatriene]",61%

# Same assay, conditions: Table VI; 41 mg inhibitor/band, 410 mg urea/band; three replications; Hastings silt loam, 25° C.; 6 days
row,SMILES,"Unhydrolyzed Urea, % Banded 6-Day"
1,"NP1(Oc2ccccc2)=NP(N)(Oc2ccccc2)=NP(N)(Oc2ccccc2)=N1 (centres unmarked) [P3 N3 (NH2)3 (OC6 H5)3, 2,4,6-triphenoxy-2,4,6-triaminocyclotriphosphazatriene]",0%
2,"NP1(N)=NP(N)(Oc2ccccc2)=NP(N)(Oc2ccccc2)=N1 (centres unmarked) [P3 N3 (NH2)4 (OC6 H5)2, 2,4-diphenoxy-2,4,6,6-tetraaminocyclotriphosphazatriene]",4%
3,"NP1(N)=NP(N)(N)=NP(N)(Oc2ccccc2)=N1 (centres unmarked) [P3 N3 (NH2)5 (OC6 H5), 2-phenoxy-2,4,4,6,6-pentaaminocyclotriphosphazatriene]",7%

# Test system: soil urease
# Test: Urea remaining unhydrolyzed in Hastings silt loam soil, well-mixed system
# Assay type: biochemical
# Details: 1-, 3- and 6-day tests, compared with phenyl phosphorodiamidate
row,SMILES,"Soil urease inhibitory properties in words, well-mixed system"
1,"NP1(Oc2ccccc2)=NP(N)(Oc2ccccc2)=NP(N)(Oc2ccccc2)=N1 (centres unmarked) [P3 N3 (NH2)3 (OC6 H5)3, 2,4,6-triphenoxy-2,4,6-triaminocyclotriphosphazatriene]",less than that of phenyl phosphorodiamidate
2,"NP1(N)=NP(N)(Oc2ccccc2)=NP(N)(Oc2ccccc2)=N1 (centres unmarked) [P3 N3 (NH2)4 (OC6 H5)2, 2,4-diphenoxy-2,4,6,6-tetraaminocyclotriphosphazatriene]",comparable to phenyl phosphorodiamidate
3,"NP1(N)=NP(N)(N)=NP(N)(Oc2ccccc2)=N1 (centres unmarked) [P3 N3 (NH2)5 (OC6 H5), 2-phenoxy-2,4,4,6,6-pentaaminocyclotriphosphazatriene]",comparable to phenyl phosphorodiamidate

# Same assay, conditions: FIG. 1, plotted and extrapolated from data of Table V; conventional test
row,SMILES,Time until percentage urease inhibition reaches 0% (FIG. 1)
1,"NP1(N)=NP(N)(Oc2ccccc2)=NP(N)(Oc2ccccc2)=N1 (centres unmarked) [P3 N3 (NH2)4 (OC6 H5)2, 2,4-diphenoxy-2,4,6,6-tetraaminocyclotriphosphazatriene]",about 10 days
2,"NP1(N)=NP(N)(N)=NP(N)(Oc2ccccc2)=N1 (centres unmarked) [P3 N3 (NH2)5 (OC6 H5), 2-phenoxy-2,4,4,6,6-pentaaminocyclotriphosphazatriene]",about 10 days

# Same assay, conditions: Table V; 41 mg inhibitor, 410 mg urea, 100 g soil; three replications; 25° C.; 1 day
row,SMILES,"Unhydrolyzed Urea, % Well-Mixed 1-Day"
1,"NP1(Oc2ccccc2)=NP(N)(Oc2ccccc2)=NP(N)(Oc2ccccc2)=N1 (centres unmarked) [P3 N3 (NH2)3 (OC6 H5)3, 2,4,6-triphenoxy-2,4,6-triaminocyclotriphosphazatriene]",82%
2,"NP1(N)=NP(N)(Oc2ccccc2)=NP(N)(Oc2ccccc2)=N1 (centres unmarked) [P3 N3 (NH2)4 (OC6 H5)2, 2,4-diphenoxy-2,4,6,6-tetraaminocyclotriphosphazatriene]",94%
3,"NP1(N)=NP(N)(N)=NP(N)(Oc2ccccc2)=N1 (centres unmarked) [P3 N3 (NH2)5 (OC6 H5), 2-phenoxy-2,4,4,6,6-pentaaminocyclotriphosphazatriene]",96%

# Same assay, conditions: Table V; 41 mg inhibitor, 410 mg urea, 100 g soil; three replications; 25° C.; 3 days
row,SMILES,"Unhydrolyzed Urea, % Well-Mixed 3-Day"
1,"NP1(Oc2ccccc2)=NP(N)(Oc2ccccc2)=NP(N)(Oc2ccccc2)=N1 (centres unmarked) [P3 N3 (NH2)3 (OC6 H5)3, 2,4,6-triphenoxy-2,4,6-triaminocyclotriphosphazatriene]",37%
2,"NP1(N)=NP(N)(Oc2ccccc2)=NP(N)(Oc2ccccc2)=N1 (centres unmarked) [P3 N3 (NH2)4 (OC6 H5)2, 2,4-diphenoxy-2,4,6,6-tetraaminocyclotriphosphazatriene]",74%
3,"NP1(N)=NP(N)(N)=NP(N)(Oc2ccccc2)=N1 (centres unmarked) [P3 N3 (NH2)5 (OC6 H5), 2-phenoxy-2,4,4,6,6-pentaaminocyclotriphosphazatriene]",82%

# Same assay, conditions: Table V; 41 mg inhibitor, 410 mg urea, 100 g soil; three replications; 25° C.; 6 days
row,SMILES,"Unhydrolyzed Urea, % Well-Mixed 6-Day"
1,"NP1(Oc2ccccc2)=NP(N)(Oc2ccccc2)=NP(N)(Oc2ccccc2)=N1 (centres unmarked) [P3 N3 (NH2)3 (OC6 H5)3, 2,4,6-triphenoxy-2,4,6-triaminocyclotriphosphazatriene]",0%
2,"NP1(N)=NP(N)(Oc2ccccc2)=NP(N)(Oc2ccccc2)=N1 (centres unmarked) [P3 N3 (NH2)4 (OC6 H5)2, 2,4-diphenoxy-2,4,6,6-tetraaminocyclotriphosphazatriene]",36%
3,"NP1(N)=NP(N)(N)=NP(N)(Oc2ccccc2)=N1 (centres unmarked) [P3 N3 (NH2)5 (OC6 H5), 2-phenoxy-2,4,4,6,6-pentaaminocyclotriphosphazatriene]",44%
